# Measurements reported in patent US5496703A, “Indirect immunoassay for dioxinlike compounds” (priority 1993, dated 1996).
# Values joined by “and” are separate entries in the source; they are usually repeats but may differ in a detail not shown here. Equal values may be shown once. “Also recorded” adds a separate entry of the source.
# Assays:
# Ah receptor [1] = conditions: C57BL/6J mouse; cited from earlier work
# Ah receptor [2] = conditions: cited from earlier work
# protein kinase C = conditions: cited from earlier work
# human receptor = conditions: cited from earlier work
# [3] = system: protein tyrosylphosphorylation of hepatic S-9 proteins; test: Immunoblot / densitometry of hepatic S-9 phosphotyrosyl proteins, mice dosed i.p.; format: in vivo, C57BL/6 mice
# Description: Female, C57BL/6 mice (or any cytochrome P-450IA1 inducible strain) were obtained from Harton Sprague Dawley (Indianapolis, Ind.). Experiments were performed using four to six week old, female mice weighing approximately 16 to 20 g. Mice were fed Prolab RMH 1000 rat, mouse and hamster food (Agway, Cortland, N.Y.) and received tap water ad libitum. All mice were housed three to five per cage and maintained on a photoperiod of 12 hours. Mice were killed 24 hours following an intraperitoneal injection of either corn oil alone or TCDD (Analabs) at 0.25, 0.5, 1, 2, 4, 10, 50 μg/kg, the volume of the injections ranged from 0.1 to 0.2 ml per mouse. Hepatic S-9 fractions were prepared by homogenizing the liver in 3 times the volume of 0.15M KCl. Following a 9000×g centrifugation for 20 minutes, the supernatant (S-9) fraction was carefully removed and quickly frozen for storage at -80° C.
# The separation of S-9 proteins by means of SDS PAGE was performed by mixing the S-9 1:1 with a double strength sodium dodecyl sulfate sample buffer and heating the solution at 100° C. for 3 minutes prior to one-dimensional SDS polyacrylamide gel electrophoresis with 10% polyacrylamide. After electrophoresis, a Milliblot SDS electroblot apparatus (Millipore, Bedford, Mass.) was used to transfer the proteins from the polyacrylamide gels to an Immobilon™ membrane filter (Millipore). Complete transfers were accomplished in 25-30 minutes at 500 mA and were assessed by tracking pre-stained molecular weight standards onto the membrane filter. Membrane filters were blocked by incubating in TBS (Tris buffered saline) containing 5% milk for 30 minutes at 37° C. The membranes were then washed in TBST (TBS with 0.05% Tween 20) and incubated overnight with antiphosphotyrosine monoclonal antibody (1.5 μg/mL) in TBST. The primary antibody was removed, and the membranes were washed four times in TBST. To visualize the antibody reaction, the membranes were incubated for 3 hours at 37° C. with alkaline phosphatase-conjugated antimouse IgG diluted 1:1000 in TBST, washed 3 times in TBST, and developed for 15 to 30 minutes. Determination of molecular weights of immuno-stained proteins was performed by adding molecular weight standards (Bio Rad) to reference lanes and staining the membrane filters with amido black.
# The indicated densitometric measurements were made on a BioImage AK Kodak Visage 110.
# An estimate of the limit of detection of dioxinlike activity can be made using the 0.25 μg/kg dose as the minimally effective dose. At this level of administration of TCDD, the 37 kDalton band becomes easily visible. Assuming a 20 g mouse, the diethyl ether extract would have to contain 5 ng of dioxin equivalents to initiate a tryosylphosphorylation of the 37 kDalton protein. […]
# [4] = cited from earlier work
# rodents = conditions: guinea pig to hamster; cited from earlier work
# [5] = single human; cited from earlier work
# [6] = system: cytochrome P-450IA1 aryl hydrocarbon hydroxylase; conditions: 3 days post-injection (Poland et al. 1974); cited from earlier work
# cytochrome P-450IA1 = test: Ethoxyresorufin O-deethylase assay (EROD), X3 cells; format: cell-based, human; conditions: 16 hours
# Description: The X3 human lymphoblastoma cells (Genetest, Wolburn, Mass.) were grown in 75 cm^2 T-flasks in RPMI 1640 medium (Gibco) containing 9% horse serum. Any cell or cell line expressing cytochrome P-450IA1 may be used. The cells were cultured at 37° C. in a 5% CO2 (balance air) environment. Cells were subcultured by centrifuging (1000 rpm, 3 minutes) and resuspended in fresh media to a volume of 50 mL (at a cell density of 1.0×10^6 cells/mL). The TCDD-corn oil solution was homogenized with serum to a final concentration of 0.10 μg/mL. The TCDD-serum was added at concentrations of 0, 0.02, 0.05, 0.1, 0.5 and 1.0 nM per flask and incubated for 16 hours. […] A final cell count was then determined.
# Resorufin (hydroxyphenoxazone) and ethoxyresorufin were purchased from Molecular Probes (Junction City, Oreg.). EROD was measured by following the increase in fluorescence due to the formation of resorufin by dealkylation of its ethoxy derivative. […] A baseline of fluorescence was recorded at an excitation wavelength of 530 nm and an emission wavelength of 585 nm. The reaction was started with the addition of NADPH and the dealkylation of the derivative to resorufin was followed by a progressive increase in fluorescence as resorufin was generated. Recordings were standardized by measuring the fluorescence of freshly generated resorufin from resorufin acetate (Sigma, St. Louis, Mo.) prior to each assay. […]
# C57BL/6J mouse strain = conditions: cited from earlier work
# EGF receptor = conditions: cited from earlier work
smiles,measurement,setting,value
"Clc1cc2c(cc1Cl)Oc1cc(Cl)c(Cl)cc1O2 [TCDD, 2,3,7,8-tetrachlorodibenzo-p-dioxin]",hepatic level of Ah receptor capable of binding TCDD,Ah receptor [1],40-120 fmol/mg of protein
same,hepatic level of TCDD binding Ah receptor,Ah receptor [2]; DBA/2 mouse,less than 1 fmol of receptor/mg of cytosolic protein
same,binding to DBA/2 mouse receptor,Ah receptor [2],Weaker binding
same,protein kinase C activity,protein kinase C,increases the activity of protein kinase C
same,binding to human receptor,human receptor,Weaker binding
same,minimal effective dose,"[3]; Mus musculus, ip, 24 h, in vivo limit-of-detection estimate, read-out: minimally effective dose (37 kDalton band easily visible)",0.25 µg/kg
same,ED50,"[3]; Mus musculus, ip, densitometry of immunoblot, i.p., 24 hours after dosing, read-out: ED50, 44 kDalton protein tyrosylphosphorylation",0.5 µg/kg
same,dose of maximal 44 kDalton protein tyrosylphosphorylation,"[3]; densitometry of immunoblot, i.p., 24 hours after dosing",1 μg TCDD/kg
same,tyrosylphosphorylation of the 37 kDalton protein,"[3]; immunoblot, i.p., 24 hours",resulted in the tyrosylphosphorylation of the 37 kDalton protein; also recorded: highly phosphorylated at tyrosine residues
same,difference in whole body half-life between guinea pig and hamster,[4]; guinea pig versus hamster,3 fold
same,whole-body half-life,[4]; rodents,on the order of weeks
same,range of LD50 among rodents,rodents,≥ 2500 fold
same,half-life,[5],5.8 year
same,"published ED50, induction of aryl hydrocarbon hydroxylase specific activity",[6],approximately 3 μg/kg
same,concentration of maximal EROD activity,cytochrome P-450IA1,2 nM and 1 nM
same,EC50,cytochrome P-450IA1; probit model,0.3 nM
same,susceptibility to TCDD-induced toxicity,C57BL/6J mouse strain,very susceptible
same,plasma membrane EGF receptor levels,EGF receptor,up-regulates plasma membrane EGF receptor levels
